The values below come from patent US20230089867A1, “CYCLIC PENTAMER COMPOUNDS AS PROPROTEIN CONVERTASE SUBTILISIN/KEXIN TYPE 9 (PCSK9) INHIBITORS FOR THE TREATMENT OF METABOLIC DISORDER” (Novartis AG, priority 2018, published 2023).

This experiment addresses human PCSK9 (Homo sapiens, UniProt Q8NBP7). The experiment in a line: PCSK9 ligand binding TR-FRET assay (interference with binding of human PCSK9 to human LDLR). The settings on record: for Max % inhibition: PCSK9 FRET assay, efficacy (Amax), 100% = 1 uM unlabeled human PCSK9, 0% = DMSO; for IC50: TR-FRET, human PCSK9 Alexa Fluor 647 / human LDLR extracellular domain-Europium Kryptate, read-out: PCSK9 FRET Assay IC50. The method, boiled down: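 Threefold compound dilutions were pre-incubated 30 min with PCSK9, after which 4 nM Europium Kryptate-tagged human LDLR ectodomain was added for a further 2 h.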

human PCSK9, sequence (Q8NBP7 153-692): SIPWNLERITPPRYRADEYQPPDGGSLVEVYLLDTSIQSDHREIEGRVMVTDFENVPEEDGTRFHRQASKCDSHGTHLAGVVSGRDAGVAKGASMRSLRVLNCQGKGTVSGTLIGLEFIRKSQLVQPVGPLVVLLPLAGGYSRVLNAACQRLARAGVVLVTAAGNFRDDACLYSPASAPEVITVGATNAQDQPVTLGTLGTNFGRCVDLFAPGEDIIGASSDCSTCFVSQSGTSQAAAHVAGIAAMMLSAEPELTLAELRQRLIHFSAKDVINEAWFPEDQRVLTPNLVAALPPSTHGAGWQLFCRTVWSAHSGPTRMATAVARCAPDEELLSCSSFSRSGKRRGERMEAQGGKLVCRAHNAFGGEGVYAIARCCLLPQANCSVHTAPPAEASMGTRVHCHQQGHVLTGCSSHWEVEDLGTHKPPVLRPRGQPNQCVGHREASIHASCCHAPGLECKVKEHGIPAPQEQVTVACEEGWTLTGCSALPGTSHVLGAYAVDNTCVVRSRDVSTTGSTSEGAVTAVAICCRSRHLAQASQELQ
human PCSK9, sequence (Q8NBP7 31-152 partner limits assumed): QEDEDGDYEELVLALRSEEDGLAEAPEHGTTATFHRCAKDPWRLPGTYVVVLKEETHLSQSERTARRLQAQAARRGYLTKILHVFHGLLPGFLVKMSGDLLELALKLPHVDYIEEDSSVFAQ

As for `COC[C@@H]1NC(=O)[C@H](COC)N(Cc2ccc(Cl)cc2Oc2ccc(-c3cnc(CN(C)C)n3C)cc2)C(=O)C[C@@H](Cc2ccccc2)C(=O)N(C)[C@H]2CCCC[C@@H]2NC(=O)C[C@H](Cc2ccc(Cl)cc2)N(C)C1=O` [Compound 234, (4S,7S,10S,14R,16aS,20aS)-14-benzyl-11-(4-chloro-2-(4-(2-((dimethylamino)methyl)-1-methyl-1H-imidazol-5-yl)phenoxy)benzyl)-4-(4-chlorobenzyl)-7,10-bis(methoxymethyl)-5,16-dimethylhexadecahydrobenzo[l][1,4,7,11,14]pentaazacyclooctadecine-2,6,9,12,15(3H)-pentaone], the Max % inhibition was found to be 100.63% and the IC50 was 0.8 nM.

For the compound `COC[C@@H]1NC(=O)[C@H](C)N(Cc2ccc(Cl)cc2Oc2ccc(-c3cnc(CN(C)C)n3C)cc2)C(=O)C[C@@H](Cc2ccccc2)C(=O)N(C)[C@@H](CO)CNC(=O)C[C@H](Cc2ccc(Cl)cc2)N(C)C1=O` [Compound 235, (2S,5S,8S,13R,16R)-16-benzyl-1-(4-chloro-2-(4-(2-((dimethylamino)methyl)-1-methyl-1H-imidazol-5-yl)phenoxy)benzyl)-8-(4-chlorobenzyl)-13-(hydroxymethyl)-5-(methoxymethyl)-2,7,14-trimethyl-1,4,7,11,14-pentaazacyclooctadecane-3,6,10,15,18-pentaone], the Max % inhibition came out at 100.56% and the IC50 worked out at 11.1 nM.

Consider `COC[C@@H]1NC(=O)[C@H](C)N(Cc2c(F)cc(F)cc2Oc2ccc(-c3cnc(CN(C)C)n3C)cc2)C(=O)C[C@@H](Cc2ccccc2)C(=O)N(C)[C@@H](C)CNC(=O)C[C@H](Cc2ccc(Cl)cc2)N(C)C1=O` [Compound 236, (2S,5S,8S,13S,16R)-16-benzyl-8-(4-chlorobenzyl)-1-(2-(4-(2-((dimethylamino)methyl)-1-methyl-1H-imidazol-5-yl)phenoxy)-4,6-difluorobenzyl)-5-(methoxymethyl)-2,7,13,14-tetramethyl-1,4,7,11,14-pentaazacyclooctadecane-3,6,10,15,18-pentaone], for which the Max % inhibition amounted to 95.33% and the IC50 came out at 6.6 nM.

On to `COC[C@@H]1NC(=O)[C@H](CC(=O)OC(C)(C)C)N(Cc2ccc(Cl)cc2Oc2ccc(-c3cnc(CN(C)C)n3C)cc2)C(=O)C[C@@H](Cc2ccccc2)C(=O)N(C)[C@H]2CCCC[C@@H]2NC(=O)C[C@H](Cc2ccc(Cl)cc2)N(C)C1=O` [Compound 237, tert-butyl 2-((4S,7S,10S,14R,16aS,20aS)-14-benzyl-11-(4-chloro-2-(4-(2-((dimethylamino)methyl)-1-methyl-1H-imidazol-5-yl)phenoxy)benzyl)-4-(4-chlorobenzyl)-7-(methoxymethyl)-5,16-dimethyl-2,6,9,12,15-pentaoxodocosahydrobenzo[l][1,4,7,11,14]pentaazacyclooctadecin-10-yl)acetate], for which the Max % inhibition was found to be 102.97% and the IC50 came out at 1.4 nM.

As to `COC[C@@H]1NC(=O)[C@H](C)N(Cc2ccc(Cl)cc2Oc2ccc(-c3cnc(CN(C)C)n3C)cc2)C(=O)C[C@@H](Cc2cccc(OC(F)F)c2)C(=O)N(C)[C@@H](C)CNC(=O)C[C@H](Cc2ccc(Cl)cc2)N(C)C1=O` [Compound 238, (2S,5S,8S,13S,16R)-1-(4-chloro-2-(4-(2-((dimethylamino)methyl)-1-methyl-1H-imidazol-5-yl)phenoxy)benzyl)-8-(4-chlorobenzyl)-16-(3-(difluoromethoxy)benzyl)-5-(methoxymethyl)-2,7,13,14-tetramethyl-1,4,7,11,14-pentaazacyclooctadecane-3,6,10,15,18-pentaone], the Max % inhibition is on record as 104.90% and the IC50 was found to be 2.5 nM.

As for `COCCN(C)C(=O)C[C@H]1C(=O)N[C@@H](COC)C(=O)N(C)[C@@H](Cc2ccc(Cl)cc2)CC(=O)N[C@H]2CCCC[C@@H]2N(C)C(=O)[C@H](Cc2ccccc2)CC(=O)N1Cc1ccc(Cl)cc1Oc1ccc(-c2cnc(CN(C)C)n2C)cc1` [Compound 239, 2-((4S,7S,10S,14R,16aS,20aS)-14-benzyl-11-(4-chloro-2-(4-(2-((dimethylamino)methyl)-1-methyl-1H-imidazol-5-yl)phenoxy)benzyl)-4-(4-chlorobenzyl)-7-(methoxymethyl)-5,16-dimethyl-2,6,9,12,15-pentaoxodocosahydrobenzo[l][1,4,7,11,14]pentaazacyclooctadecin-10-yl)-N-(2-methoxyethyl)-N-methylacetamide], the Max % inhibition was found to be 106.17% and the IC50 amounted to 1.3 nM.

On to `COC[C@@H]1NC(=O)[C@H](C)N(Cc2ccc(C)cc2Oc2ccc(-c3cnc(CN(C)C)n3C)cc2)C(=O)C[C@@H](Cc2ccccc2)C(=O)N(C)[C@@H](C)CNC(=O)C[C@H](Cc2ccc(Cl)cc2)N(C)C1=O` [Compound 240, (2S,5S,8S,13S,16R)-16-benzyl-8-(4-chlorobenzyl)-1-(2-(4-(2-((dimethylamino)methyl)-1-methyl-1H-imidazol-5-yl)phenoxy)-4-methylbenzyl)-5-(methoxymethyl)-2,7,13,14-tetramethyl-1,4,7,11,14-pentaazacyclooctadecane-3,6,10,15,18-pentaone], for which the Max % inhibition is 99.28% and the 50% inhibitory concentration (IC50) turned out to be 0.9 nM.

`COC[C@@H]1NC(=O)[C@H](C)N(Cc2ccc(Cl)cc2Oc2ccc(-c3cnc([C@H](C)N(C)C)n3C)cc2)C(=O)C[C@@H](Cc2ccccc2)C(=O)N(C)[C@H]2CCCC[C@@H]2NC(=O)C[C@H](Cc2ccc(Cl)cc2)N(C)C1=O` [Compound 241, (4S,7S,10S,14R,16aS,20aS)-14-benzyl-11-(4-chloro-2-(4-(2-((S)-1-(dimethylamino)ethyl)-1-methyl-1H-imidazol-5-yl)phenoxy)benzyl)-4-(4-chlorobenzyl)-7-(methoxymethyl)-5,10,16-trimethylhexadecahydrobenzo[l][1,4,7,11,14]pentaazacyclooctadecine-2,6,9,12,15(3H)-pentaone]: the Max % inhibition is given as 72.66% and the IC50 came to 247 nM.

In the case of `COC[C@@H]1NC(=O)[C@H](C)N(Cc2ccc(Cl)cc2Oc2ccc(-c3cnc(C(C)O)n3C)cc2)C(=O)C[C@@H](Cc2ccccc2)C(=O)N(C)[C@H]2CCCC[C@@H]2NC(=O)C[C@H](Cc2ccc(Cl)cc2)N(C)C1=O` (stereo partly drawn) [Compound 242, (4S,7S,10S,14R,16aS,20aS)-14-benzyl-11-(4-chloro-2-(4-(2-(1-hydroxyethyl)-1-methyl-1H-imidazol-5-yl)phenoxy)benzyl)-4-(4-chlorobenzyl)-7-(methoxymethyl)-5,10,16-trimethylhexadecahydrobenzo[l][1,4,7,11,14]pentaazacyclooctadecine-2,6,9,12,15(3H)-pentaone], the Max % inhibition is 87.34% and the half-inhibitory concentration (IC50) turned out to be 1.3 nM.

Turning to `C[C@H]1C(=O)N[C@@H](CO)C(=O)N(C)[C@@H](Cc2ccc(Cl)cc2)CC(=O)N[C@H]2CCCC[C@@H]2N(C)C(=O)[C@H](Cc2ccccc2)CC(=O)N1Cc1ccc(Cl)cc1Oc1ccc(-c2cnc(CN(C)C)n2C)cc1` [Compound 243, (4S,7S,10S,14R,16aS,20aS)-14-benzyl-11-(4-chloro-2-(4-(2-((dimethylamino)methyl)-1-methyl-1H-imidazol-5-yl)phenoxy)benzyl)-4-(4-chlorobenzyl)-7-(hydroxymethyl)-5,10,16-trimethylhexadecahydrobenzo[l][1,4,7,11,14]pentaazacyclooctadecine-2,6,9,12,15(3H)-pentaone], the Max % inhibition is 97.38% and the IC50 stood at 0.9 nM.

For `CCNC(=O)c1ncn(-c2ccc(Oc3cc(Cl)ccc3CN3C(=O)C[C@@H](Cc4ccccc4)C(=O)N(C)[C@@H](C)CNC(=O)C[C@H](Cc4ccc(Cl)cc4)N(C)C(=O)[C@H](COC)NC(=O)[C@@H]3C)cc2)c1C` [Compound 244, 1-(4-(2-(((2S,5S,8S,13S,16R)-16-benzyl-8-(4-chlorobenzyl)-5-(methoxymethyl)-2,7,13,14-tetramethyl-3,6,10,15,18-pentaoxo-1,4,7,11,14-pentaazacyclooctadecan-1-yl)methyl)-5-chlorophenoxy)phenyl)-N-ethyl-5-methyl-1H-imidazole-4-carboxamide], the Max % inhibition amounted to 80.79% and the 50% inhibitory concentration (IC50) is 22.9 nM.

As to `COC[C@@H]1NC(=O)[C@H](CCC(=O)O)N(Cc2ccc(Cl)cc2Oc2ccc(-c3cnc(CN(C)C)n3C)cc2)C(=O)C[C@@H](Cc2ccccc2)C(=O)N(C)[C@H]2CCCC[C@@H]2NC(=O)C[C@H](Cc2ccc(Cl)cc2)N(C)C1=O` [Compound 245, 3-((4S,7S,10S,14R,16aS,20aS)-14-benzyl-11-(4-chloro-2-(4-(2-((dimethylamino)methyl)-1-methyl-1H-imidazol-5-yl)phenoxy)benzyl)-4-(4-chlorobenzyl)-7-(methoxymethyl)-5,16-dimethyl-2,6,9,12,15-pentaoxodocosahydrobenzo[l][1,4,7,11,14]pentaazacyclooctadecin-10-yl)propanoic acid], the Max % inhibition turned out to be 104.03% and the IC50 came to 1.3 nM.

Take `COC[C@@H]1NC(=O)[C@H](C)N(Cc2ccc(Cl)cc2Oc2ccc(-c3cnc(CN(C)C)n3C)cc2)C(=O)C[C@@H](Cc2c(F)c(F)cc(F)c2F)C(=O)N(C)[C@@H](C)CNC(=O)C[C@H](Cc2ccc(Cl)cc2)N(C)C1=O` [Compound 246, (2S,5S,8S,13S,16R)-1-(4-chloro-2-(4-(2-((dimethylamino)methyl)-1-methyl-1H-imidazol-5-yl)phenoxy)benzyl)-8-(4-chlorobenzyl)-5-(methoxymethyl)-2,7,13,14-tetramethyl-16-(2,3,5,6-tetrafluorobenzyl)-1,4,7,11,14-pentaazacyclooctadecane-3,6,10,15,18-pentaone]: the Max % inhibition is listed as 103.97% and the IC50 was determined as 2.4 nM.
